# Results taken from patent US6727237B2, “Inhibitors of bacterial NAD synthetase” (priority 1998, dated 2004).
# Legend:
# [1] = molecular target: T1, bacterial NAD synthetase enzyme (Bacillus subtilis, UniProt P08164); assay: biochemical; type: biochemical; conditions: compound at 0.2 mM (Table 312A)
# T1 sequence (P08164 2-272 limits assumed): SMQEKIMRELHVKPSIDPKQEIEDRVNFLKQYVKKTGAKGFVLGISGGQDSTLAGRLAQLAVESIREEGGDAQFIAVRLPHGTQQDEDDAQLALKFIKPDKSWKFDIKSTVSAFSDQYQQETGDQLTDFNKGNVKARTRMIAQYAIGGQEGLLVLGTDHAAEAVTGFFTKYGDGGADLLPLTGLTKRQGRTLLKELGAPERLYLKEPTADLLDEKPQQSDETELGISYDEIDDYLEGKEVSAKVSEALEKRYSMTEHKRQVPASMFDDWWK
# [2] = system: Bacillus subtilis A700; assay: Standard antibiotic paper disk assay, zone of inhibition; type: cell-based; conditions: 250 μg on 6 or 7 mm paper disk; minimal-glucose plate; gram +
# Protocol: (§1) To determine initially if a compound found active in the assays, Compound 864, was also an effective inhibitor of a variety of different bacteria, a standard antibiotic assay was performed. In this assay 250 μg of Compound 864 ([…] in DMSO) was spotted on 6 or 7 mm paper disks. Each disk was placed on separate 30 ml solid-medium plates layered with bacteria Blood agar plates were used for Streptococcus, and minimal-glucose plates were used for the other microorganisms in Table 306. DMSO controls provided negative results.
# [3] = system: Escherichia coli K-12 MG1655 (CGSC#6300); assay: as above; type: cell-based; conditions: 250 μg on 6 or 7 mm paper disk; minimal-glucose plate; gram −
# Protocol: as §1
# [4] = system: Escherichia coli K-12 W3110 (CGSC#4474); assay: as above; type: cell-based; conditions: 250 μg on 6 or 7 mm paper disk; minimal-glucose plate; gram −
# Protocol: as §1
# [5] = system: Salmonella typhimurium LT2 TT366; assay: as above; type: cell-based; conditions: 250 μg on 6 or 7 mm paper disk; minimal-glucose plate; gram −
# Protocol: as §1
# [6] = system: Streptococcus pneumoniae WU2; assay: as above; type: cell-based; conditions: 250 μg on 6 or 7 mm paper disk; blood agar plate; gram +
# Protocol: as §1
# [7] = system: Streptococcus pneumonia D39; assay: as above; type: cell-based, Streptococcus pneumoniae; conditions: 250 μg on 6 or 7 mm paper disk; blood agar plate; gram +
# Protocol: as §1
# [8] = system: Staphylococcus epidermitis; assay: Bacterial growth inhibition screen in LB media (absorbance 595 nm), percent inhibition; conditions: S. epidermitis; concentration screened 100 uM
smiles,measurement,setting,value
C[n+]1cccc(C(=O)OCCCCCn2ccc3cc([N+](=O)[O-])ccc32)c1 [Compound 864],% Inhibition,[1],19.33%
same,ZONE OF INHIBITION,[2],19.5 mm
same,ZONE OF INHIBITION,[3],9.5 mm
same,ZONE OF INHIBITION,[4],9.5 mm
same,ZONE OF INHIBITION,[5],10 mm
same,ZONE OF INHIBITION,[6],15 mm
same,ZONE OF INHIBITION,[7],12 mm
same,% Inhibition,[8],87.03%
